Where two headings read alike, the source gives them in different places.
Legend:
[1] = molecular target: T1, 5-HT2C (Homo sapiens, UniProt P28335); assay: cell-based; type: cell-based; design: expressed in transfected cells; host or cells: HEK293T; settings: for EC50: Gq dissociation BRET, HEK293T
T1 sequence (P28335 33-458): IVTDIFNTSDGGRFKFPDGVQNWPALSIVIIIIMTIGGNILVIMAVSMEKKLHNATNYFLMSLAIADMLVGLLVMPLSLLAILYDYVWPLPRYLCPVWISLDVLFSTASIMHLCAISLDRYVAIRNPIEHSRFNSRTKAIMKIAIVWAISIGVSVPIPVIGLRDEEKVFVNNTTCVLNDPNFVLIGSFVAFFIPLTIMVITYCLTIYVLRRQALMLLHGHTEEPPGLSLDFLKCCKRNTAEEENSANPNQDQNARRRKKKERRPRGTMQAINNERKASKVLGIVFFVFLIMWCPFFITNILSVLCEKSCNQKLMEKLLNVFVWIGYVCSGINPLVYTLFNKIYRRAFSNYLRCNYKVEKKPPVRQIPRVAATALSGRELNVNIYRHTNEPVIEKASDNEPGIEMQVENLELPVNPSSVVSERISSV

[2] = molecular target: T2, 5-HT2B (Homo sapiens, UniProt P41595); assay: 5-HT2B Gq dissociation BRET functional assay; type: cell-based; design: expressed in transfected cells; host or cells: HEK293T; settings: for 5-HT2B BRET Eff: normalized to % 5-HT stimulation
Target sequence in this assay (P41595 whole entry): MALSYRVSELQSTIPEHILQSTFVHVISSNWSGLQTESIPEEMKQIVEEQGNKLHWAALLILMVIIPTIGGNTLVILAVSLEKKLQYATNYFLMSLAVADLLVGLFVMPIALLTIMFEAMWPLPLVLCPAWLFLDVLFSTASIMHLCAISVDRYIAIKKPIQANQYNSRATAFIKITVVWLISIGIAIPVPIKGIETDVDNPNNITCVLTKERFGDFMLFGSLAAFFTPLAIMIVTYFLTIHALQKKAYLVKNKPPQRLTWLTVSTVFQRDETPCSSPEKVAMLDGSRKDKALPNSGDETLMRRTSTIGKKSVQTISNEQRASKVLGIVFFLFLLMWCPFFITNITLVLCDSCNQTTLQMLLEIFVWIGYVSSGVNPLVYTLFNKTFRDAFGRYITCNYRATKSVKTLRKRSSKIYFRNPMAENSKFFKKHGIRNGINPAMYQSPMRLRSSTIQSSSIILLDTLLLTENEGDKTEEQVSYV

[3] = molecular target: T3, 5-HT2A (Homo sapiens, UniProt P28223); assay: 5-HT2A Gq dissociation BRET functional assay; type: cell-based; design: expressed in transfected cells; host or cells: HEK293T; settings: for 5-HT2A BRET Eff: normalized to % 5-HT stimulation
[4] = molecular target: T2, 5-HT2B; assay: 5-HT receptor activity (Table 3), 5-HT2B; type: cell-based; settings: 5-HT2B, Table 3
Target sequence in this assay (P41595 whole entry, species assumed): as the sequence (P41595 whole entry) above

[5] = molecular target: T4, 5-HT1A (Homo sapiens, UniProt P08908); assay: 5-HT receptor activity (Table 3), 5-HT1A; type: cell-based
T4 sequence (P08908 1-422): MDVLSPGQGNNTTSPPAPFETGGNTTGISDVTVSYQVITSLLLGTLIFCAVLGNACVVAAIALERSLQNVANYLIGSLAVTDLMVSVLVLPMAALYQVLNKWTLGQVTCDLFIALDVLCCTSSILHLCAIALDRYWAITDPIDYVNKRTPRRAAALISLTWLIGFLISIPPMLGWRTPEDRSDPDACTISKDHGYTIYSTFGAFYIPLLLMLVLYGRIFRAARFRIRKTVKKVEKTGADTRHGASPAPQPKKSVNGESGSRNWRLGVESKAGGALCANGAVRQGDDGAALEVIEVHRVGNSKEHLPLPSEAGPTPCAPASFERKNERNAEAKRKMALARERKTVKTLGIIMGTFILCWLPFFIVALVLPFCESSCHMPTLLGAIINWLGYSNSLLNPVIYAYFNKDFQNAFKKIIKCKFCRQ

[6] = molecular target: 5-HT1B (Homo sapiens, UniProt P28222); assay: 5-HT receptor activity (Table 3), 5-HT1B; type: cell-based
[7] = molecular target: 5-HT1E (Homo sapiens, UniProt P28566); assay: 5-HT receptor activity (Table 3), 5-HT1E; type: cell-based
[8] = molecular target: 5-HT7 (Homo sapiens, UniProt P34969); assay: 5-HT receptor activity (Table 3), 5-HT7; type: cell-based
[9] = molecular target: 5-HT6 (Homo sapiens, UniProt P50406); assay: 5-HT receptor activity (Table 3), 5-HT6; type: cell-based
[10] = molecular target: 5-HT5A (Homo sapiens, UniProt P47898); assay: 5-HT receptor activity (Table 3), 5-HT5A; type: cell-based
[11] = molecular target: 5-HT1D (Homo sapiens, UniProt P28221); assay: 5-HT receptor activity (Table 3), 5-HT1D; type: cell-based
[12] = molecular target: 5-HT4 (Homo sapiens, UniProt Q13639); assay: 5-HT receptor activity (Table 3), 5-HT4; type: cell-based
[13] = molecular target: T5, 5-HT1F (Homo sapiens, UniProt P30939); assay: 5-HT receptor activity (Table 3), 5-HT1F; type: cell-based
T5 sequence (P30939 1-366): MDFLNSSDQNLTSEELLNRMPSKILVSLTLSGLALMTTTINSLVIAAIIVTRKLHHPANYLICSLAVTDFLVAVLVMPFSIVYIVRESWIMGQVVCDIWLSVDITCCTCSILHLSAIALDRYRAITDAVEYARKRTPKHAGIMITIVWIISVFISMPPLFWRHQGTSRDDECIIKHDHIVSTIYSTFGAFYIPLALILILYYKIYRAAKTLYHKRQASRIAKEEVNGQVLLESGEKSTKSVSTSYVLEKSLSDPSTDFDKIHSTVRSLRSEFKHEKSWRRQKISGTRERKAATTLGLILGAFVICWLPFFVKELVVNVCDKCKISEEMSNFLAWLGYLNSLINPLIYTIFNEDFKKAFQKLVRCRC

[14] = molecular target: T3, 5-HT2A; assay: 5-HT receptor activity (Table 3), 5-HT2A; type: cell-based; settings: 5-HT2A, Table 3
[15] = In vitro hepatocyte clearance, human; type: in vitro ADME; settings: Human hepatocytes; for half-life: read-out: In vitro T1/2; for CLint scaled: read-out: Scale-up Clint
Method: (§1) Additional experimentation was performed on compounds 1, W5, and A93. Table 6a, 6b and 6c summarize, among other things, the anticipated hepatic clearance of compounds 1, W5 and A93 respectively, in various species, as specified in Table 6a, 6b and 6c and as determined by calculating the in vitro hepatocyte clearance over time and scaling such rate with such species' hepatocyte count and the anticipated liver blood flow rate in such species.

[16] = tested on: hepatocyte; assay: In vitro hepatocyte clearance, human; type: in vitro ADME; settings: Human
Method: as §1

[17] = In vitro hepatocyte clearance, mouse; type: in vitro ADME; settings: Mouse hepatocytes; for half-life: read-out: In vitro T1/2; for CLint scaled: read-out: Scale-up Clint
Method: as §1

[18] = tested on: hepatocyte; assay: In vitro hepatocyte clearance, mouse; type: in vitro ADME; settings: Mouse
Method: as §1

[19] = tested on: mice; assay: Head Twitch Response (HTR) in mice; type: in vivo; settings: Mus musculus, 1 h, measured over a 60 minute interval
Method: Head Twitch Response (HTR) was assessed using a head-mounted neodymium magnet and a magnetometer detection coil, as described in Halberstadt et al., Psychopharmacology (Berl.), 2013, 227 (4): 727-739. Table 8 below summarizes the ED50 in head twitch (as measured over a 60 minute interval) in mice as a result of Compound 1 as compared to psilocybin.

[20] = normalized to % 5-HT stimulation

T3 sequence (P28223 whole entry): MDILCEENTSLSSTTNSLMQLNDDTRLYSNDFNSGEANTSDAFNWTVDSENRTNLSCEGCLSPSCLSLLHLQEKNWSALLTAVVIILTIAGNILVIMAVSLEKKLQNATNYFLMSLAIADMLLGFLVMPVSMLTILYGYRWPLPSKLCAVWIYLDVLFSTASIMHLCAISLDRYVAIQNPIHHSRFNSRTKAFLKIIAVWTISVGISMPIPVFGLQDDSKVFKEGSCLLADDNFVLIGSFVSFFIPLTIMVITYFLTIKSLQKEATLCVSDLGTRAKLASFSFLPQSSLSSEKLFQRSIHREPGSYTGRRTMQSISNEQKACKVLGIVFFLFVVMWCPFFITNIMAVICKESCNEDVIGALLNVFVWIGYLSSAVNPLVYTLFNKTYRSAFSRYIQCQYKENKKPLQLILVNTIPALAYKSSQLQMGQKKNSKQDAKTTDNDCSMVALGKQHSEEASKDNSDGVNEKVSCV
Chain of 5-HT7 (P34969 whole entry, species assumed): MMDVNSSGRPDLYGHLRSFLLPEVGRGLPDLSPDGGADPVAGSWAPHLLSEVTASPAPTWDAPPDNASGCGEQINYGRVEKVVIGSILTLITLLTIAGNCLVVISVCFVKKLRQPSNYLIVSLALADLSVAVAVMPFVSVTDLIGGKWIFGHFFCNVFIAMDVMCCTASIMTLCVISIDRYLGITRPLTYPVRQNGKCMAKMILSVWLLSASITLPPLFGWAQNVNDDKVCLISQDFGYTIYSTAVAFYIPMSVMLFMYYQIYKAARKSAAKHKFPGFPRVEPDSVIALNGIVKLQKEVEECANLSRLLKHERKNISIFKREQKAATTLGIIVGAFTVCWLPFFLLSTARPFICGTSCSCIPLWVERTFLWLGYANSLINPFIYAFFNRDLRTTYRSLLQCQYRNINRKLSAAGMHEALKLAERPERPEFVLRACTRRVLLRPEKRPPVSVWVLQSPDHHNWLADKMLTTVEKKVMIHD
Chain of 5-HT1D (P28221 whole entry, species assumed): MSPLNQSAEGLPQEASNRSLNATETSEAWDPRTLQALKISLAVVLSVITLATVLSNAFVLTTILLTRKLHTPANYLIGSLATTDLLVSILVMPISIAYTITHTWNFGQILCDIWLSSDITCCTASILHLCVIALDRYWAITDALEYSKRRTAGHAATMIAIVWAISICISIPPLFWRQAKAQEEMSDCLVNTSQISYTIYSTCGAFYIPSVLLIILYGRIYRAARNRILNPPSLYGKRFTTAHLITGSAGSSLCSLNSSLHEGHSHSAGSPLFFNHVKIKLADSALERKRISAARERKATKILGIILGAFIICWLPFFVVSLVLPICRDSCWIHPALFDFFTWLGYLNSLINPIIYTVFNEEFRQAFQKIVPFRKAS
Chain of 5-HT5A (P47898 whole entry, species assumed): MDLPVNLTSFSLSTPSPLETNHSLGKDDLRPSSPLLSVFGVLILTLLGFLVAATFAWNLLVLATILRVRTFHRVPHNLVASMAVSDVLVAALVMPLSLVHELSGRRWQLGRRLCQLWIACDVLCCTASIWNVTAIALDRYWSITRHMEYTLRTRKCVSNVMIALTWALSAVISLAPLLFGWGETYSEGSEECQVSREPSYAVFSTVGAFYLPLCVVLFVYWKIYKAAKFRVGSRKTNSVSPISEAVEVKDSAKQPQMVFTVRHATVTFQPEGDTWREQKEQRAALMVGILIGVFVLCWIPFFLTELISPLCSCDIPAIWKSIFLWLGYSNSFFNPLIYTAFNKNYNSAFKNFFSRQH
Chain of 5-HT1B (P28222 whole entry, species assumed): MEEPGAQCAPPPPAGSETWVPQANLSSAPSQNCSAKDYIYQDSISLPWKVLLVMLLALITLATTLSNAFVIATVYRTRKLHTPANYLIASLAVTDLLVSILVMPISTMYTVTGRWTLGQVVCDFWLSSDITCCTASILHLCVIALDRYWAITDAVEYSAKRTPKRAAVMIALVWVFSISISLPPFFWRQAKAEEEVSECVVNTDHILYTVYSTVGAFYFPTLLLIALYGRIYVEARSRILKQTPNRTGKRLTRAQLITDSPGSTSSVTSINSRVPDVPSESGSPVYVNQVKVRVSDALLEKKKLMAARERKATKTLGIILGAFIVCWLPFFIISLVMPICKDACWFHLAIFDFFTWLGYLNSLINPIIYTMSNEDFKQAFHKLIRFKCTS
Chain of 5-HT4 (Q13639 whole entry, species assumed): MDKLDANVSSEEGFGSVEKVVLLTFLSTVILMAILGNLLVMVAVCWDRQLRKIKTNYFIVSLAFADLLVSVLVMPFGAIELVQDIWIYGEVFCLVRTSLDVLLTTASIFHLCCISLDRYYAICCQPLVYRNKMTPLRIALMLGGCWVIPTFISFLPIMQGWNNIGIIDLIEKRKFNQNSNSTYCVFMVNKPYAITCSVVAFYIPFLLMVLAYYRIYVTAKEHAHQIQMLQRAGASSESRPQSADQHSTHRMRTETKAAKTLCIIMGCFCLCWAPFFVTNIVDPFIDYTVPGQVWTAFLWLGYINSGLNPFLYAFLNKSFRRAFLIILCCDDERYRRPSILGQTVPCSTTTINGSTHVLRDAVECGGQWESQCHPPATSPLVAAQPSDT
Chain of 5-HT6 (P50406 whole entry, species assumed): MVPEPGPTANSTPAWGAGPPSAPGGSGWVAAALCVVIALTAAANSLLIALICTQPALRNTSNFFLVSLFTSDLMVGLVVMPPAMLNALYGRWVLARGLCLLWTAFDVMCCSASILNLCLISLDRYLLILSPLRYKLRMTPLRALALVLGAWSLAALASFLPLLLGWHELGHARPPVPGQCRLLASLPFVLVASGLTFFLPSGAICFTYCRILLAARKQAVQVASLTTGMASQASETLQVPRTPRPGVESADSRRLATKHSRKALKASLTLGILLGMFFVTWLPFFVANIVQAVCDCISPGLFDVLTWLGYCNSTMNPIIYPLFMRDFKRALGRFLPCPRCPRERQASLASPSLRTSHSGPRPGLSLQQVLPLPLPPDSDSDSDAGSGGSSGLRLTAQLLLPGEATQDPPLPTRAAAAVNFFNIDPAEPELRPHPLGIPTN
Chain of 5-HT1E (P28566 whole entry, species assumed): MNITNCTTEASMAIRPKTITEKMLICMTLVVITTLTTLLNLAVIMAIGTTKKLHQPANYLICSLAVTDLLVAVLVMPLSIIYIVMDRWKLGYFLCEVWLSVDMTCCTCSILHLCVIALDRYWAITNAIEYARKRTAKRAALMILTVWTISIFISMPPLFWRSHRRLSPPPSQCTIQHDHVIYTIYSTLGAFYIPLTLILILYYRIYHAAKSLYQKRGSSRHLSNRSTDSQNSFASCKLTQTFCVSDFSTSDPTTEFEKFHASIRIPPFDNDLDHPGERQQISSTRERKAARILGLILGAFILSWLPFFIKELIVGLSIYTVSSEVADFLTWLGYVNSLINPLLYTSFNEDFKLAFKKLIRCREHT

Structure (SMILES) | EC50 [1] | 5-HT2C BRET Eff [1, 20] | EC50 [2] | 5-HT2B BRET Eff [2] | EC50 [3] | 5-HT2A BRET Eff [3] | also measured
Cc1ccc(O)c2c3c([nH]c12)CCN(Cc1ccccc1O)CC3 [Cpd #18 (A90)] | 24 nM | 93% | 2.7 nM | −2.6% | 31 nM | 76% | –
Cc1ccc(O)c2[nH]c3c(c12)CCNCC3 [Pharm-159] | 0.17 nM | 99% | 3 nM | 95% | 3.5 nM | 96% | –
Cc1cc(F)c(O)c2c3c([nH]c12)CCNCC3 [Cpd #27 (A92)] | 2.8 nM | 101% | 14 nM | 77% | 6.2 nM | 97% | –
CN(C)CCc1c[nH]c2cccc(O)c12 [psilocin, reference compound] | – | – | – | 63% | – | 82% | Eff [4]: 32%; Eff [5]: 93%; Eff [6]: 94%; Eff [7]: 90%; Eff [8]: 86%; Eff [9]: 74%; Eff [10]: 48%; Eff [11]: 102%; Eff [12]: 81%; Eff [13]: 93%; Eff [14]: 80%
CN1CCc2[nH]c3cccc(O)c3c2CC1 [Cpd #66 (A94)] | 18.8 nM | 89% | 47.9 nM | 28% | 8.1 nM | 91% | –
Cn1c2c(c3c(O)cccc31)CCNCC2 [Cpd #65 (A95)] | 2.8 nM | 93% | 40.3 nM | 70% | 5.9 nM | 96% | –
CN1CCc2c(n(C)c3cccc(O)c23)CC1 [Cpd #64 (A96)] | 6.7 nM | 79% | 90.9 nM | 46% | 15.3 nM | 87% | –
Cc1ccc(O)c2c3c([nH]c12)C(C)CNCC3 (centres unmarked) [Cpd #45 (W8)] | 1.2 nM | 99% | 1.3 nM | 54% | 6.4 nM | 98% | –
Oc1cccc2[nH]c3c(c12)CCNCC3 [Cpd #67 (A93)] | 5.7 nM | 94% | 55.7 nM | 57% | 4 nM | 97% | hepatocyte CLint [15]: < 2.71 µL/min/1e6 cells; half-life [15]: > 8.53 h; CLint scaled [15]: < 6.89 mL/min/kg; Hepatic Extraction Ratio (E) [16]: <0.25; Predicted hepatic CL [16]: <5.17 mL/min/kg; hepatocyte CLint [17]: < 2.71 µL/min/1e6 cells; half-life [17]: > 8.53 h; CLint scaled [17]: < 32 mL/min/kg; Hepatic Extraction Ratio (E) [18]: <0.26; Predicted hepatic CL [18]: <23.60 mL/min/kg
Cc1ccc(O)c2c3c([nH]c12)CCN(C)CC3 [Cpd #14 (W5)] | 1.3 nM | 87% | 22.7 nM | 25% | 3.9 nM | 89% | hepatocyte CLint [15]: 1.26 µL/min/1e6 cells; half-life [15]: 20.9 h; CLint scaled [15]: 3.22 mL/min/kg; Hepatic Extraction Ratio (E) [16]: 0.13; Predicted hepatic CL [16]: 2.74 mL/min/kg; hepatocyte CLint [17]: 40.7 µL/min/1e6 cells; half-life [17]: 0.568 h; CLint scaled [17]: 480 mL/min/kg; Hepatic Extraction Ratio (E) [18]: 0.84; Predicted hepatic CL [18]: 75.80 mL/min/kg
NCCc1c[nH]c2cccc(O)c12 [4-hydroxytryptamine, reference compound] | – | – | – | 100% | – | 100% | 5-HT2C BRET Eff [1]: 99%
CN(C)CCc1c[nH]c2cccc(OP(=O)(O)O)c12 [Psilocybin, psilocybin, reference compound] | – | – | – | – | – | – | ED50 [19]: 0.38 mg/kg
Cc1cccc2c(CCN(C)C)c[nH]c12 [7,N,N-TMT, reference compound] | – | 79% | – | 36% | – | 80% | EC50 ([2]; Gq dissociation BRET, HEK293T, read-out: 5-HT2B BRET EC50): 74.3 nM

Source: patent US20250296934A1, “AZEPINOINDOLES AND METHODS OF PREPARATION THEREOF” (priority 2022, published 2025)
